Values quoted from earlier work in patent publication US20090208616A1, “INTERVENTION TECHNIQUES FOR REDUCING CARCASS CONTAMINATION” (priority 2000, published 2009).
Like-named read-outs stand apart in the source and are kept apart here.

Tested on: Giardia Cysts

SMILES: NCl [Chloramine]
- CT value for 0.5-log inactivation of Giardia cysts by chloramine (pH range 6 to 9, 5 ° C.): 365 mg/L-min
- CT value for 1-log inactivation of Giardia cysts by chloramine (pH range 6 to 9, 5 ° C.): 735 mg/L-min
- CT value for 1.5-log inactivation of Giardia cysts by chloramine (pH range 6 to 9, 5 ° C.): 1100 mg/L-min
- CT value for 2-log inactivation of Giardia cysts by chloramine (pH range 6 to 9, 5 ° C.): 1470 mg/L-min
- CT value for 2.5-log inactivation of Giardia cysts by chloramine (pH range 6 to 9, 5 ° C.): 1830 mg/L-min
- CT value for 3-log inactivation of Giardia cysts by chloramine (pH range 6 to 9, 5 ° C.): 2200 mg/L-min
- CT value for 0.5-log inactivation of Giardia cysts by chloramine (pH range 6 to 9, 10 ° C.): 310 mg/L-min
- CT value for 1-log inactivation of Giardia cysts by chloramine (pH range 6 to 9, 10 ° C.): 615 mg/L-min
- CT value for 1.5-log inactivation of Giardia cysts by chloramine (pH range 6 to 9, 10 ° C.): 930 mg/L-min
- CT value for 2-log inactivation of Giardia cysts by chloramine (pH range 6 to 9, 10 ° C.): 1230 mg/L-min
- CT value for 2.5-log inactivation of Giardia cysts by chloramine (pH range 6 to 9, 10 ° C.): 1540 mg/L-min
- CT value for 3-log inactivation of Giardia cysts by chloramine (pH range 6 to 9, 10 ° C.): 1850 mg/L-min
- CT value for 0.5-log inactivation of Giardia cysts by chloramine (pH range 6 to 9, 15 ° C.): 250 mg/L-min
- CT value for 1-log inactivation of Giardia cysts by chloramine (pH range 6 to 9, 15 ° C.): 500 mg/L-min
- CT value for 1.5-log inactivation of Giardia cysts by chloramine (pH range 6 to 9, 15 ° C.): 750 mg/L-min
- CT value for 2-log inactivation of Giardia cysts by chloramine (pH range 6 to 9, 15 ° C.): 1000 mg/L-min
- CT value for 2.5-log inactivation of Giardia cysts by chloramine (pH range 6 to 9, 15 ° C.): 1250 mg/L-min
- CT value for 3-log inactivation of Giardia cysts by chloramine (pH range 6 to 9, 15 ° C.): 1500 mg/L-min
- CT value for 0.5-log inactivation of Giardia cysts by chloramine (pH range 6 to 9, 20 ° C.): 185 mg/L-min
- CT value for 1-log inactivation of Giardia cysts by chloramine (pH range 6 to 9, 20 ° C.): 370 mg/L-min
- CT value for 1.5-log inactivation of Giardia cysts by chloramine (pH range 6 to 9, 20 ° C.): 550 mg/L-min
- CT value for 2-log inactivation of Giardia cysts by chloramine (pH range 6 to 9, 20 ° C.): 735 mg/L-min
- CT value for 2.5-log inactivation of Giardia cysts by chloramine (pH range 6 to 9, 20 ° C.): 915 mg/L-min
- CT value for 3-log inactivation of Giardia cysts by chloramine (pH range 6 to 9, 20 ° C.): 1100 mg/L-min
- CT value for 0.5-log inactivation of Giardia cysts by chloramine (pH range 6 to 9, 25 ° C.): 125 mg/L-min
- CT value for 1-log inactivation of Giardia cysts by chloramine (pH range 6 to 9, 25 ° C.): 250 mg/L-min
- CT value for 1.5-log inactivation of Giardia cysts by chloramine (pH range 6 to 9, 25 ° C.): 375 mg/L-min
- CT value for 2-log inactivation of Giardia cysts by chloramine (pH range 6 to 9, 25 ° C.): 500 mg/L-min
- CT value for 2.5-log inactivation of Giardia cysts by chloramine (pH range 6 to 9, 25 ° C.): 625 mg/L-min
- CT value for 3-log inactivation of Giardia cysts by chloramine (pH range 6 to 9, 25 ° C.): 750 mg/L-min
- CT value for 0.5-log inactivation of Giardia cysts by chloramine (pH range 6 to 9, ≦1 ° C.): 635 mg/L-min
- CT value for 1-log inactivation of Giardia cysts by chloramine (pH range 6 to 9, ≦1 ° C.): 1270 mg/L-min
- CT value for 1.5-log inactivation of Giardia cysts by chloramine (pH range 6 to 9, ≦1 ° C.): 1900 mg/L-min
- CT value for 2-log inactivation of Giardia cysts by chloramine (pH range 6 to 9, ≦1 ° C.): 2535 mg/L-min
- CT value for 2.5-log inactivation of Giardia cysts by chloramine (pH range 6 to 9, ≦1 ° C.): 3170 mg/L-min
- CT value for 3-log inactivation of Giardia cysts by chloramine (pH range 6 to 9, ≦1 ° C.): 3800 mg/L-min
